Molecules are shown by their SMILES. ≈ marks a conversion by molar mass, not a printed value. Like-named read-outs stand apart in the source and are kept apart here.

The values that follow come from publication PMC10818454, “The Development of an Oral Solution Containing Nirmatrelvir and Ritonavir and Assessment of Its Pharmacokinetics and Stability” (Pharmaceutics, 2024).

The conditions of data set [1]: cited from earlier work.
The nature of data set [2]: Solubility in aqueous solutions of different surfactants (0.2% m/v). The conditions noted are these: vs no surfactant.
Data set [3] can be described thus: Recrystallization inhibition by surfactants (solvent shift supersaturation). In kind it is physicochemical. The conditions noted are these: 180 min. Here is the method: The solvent shift method was used to create supersaturation. […] The solution was mixed at 50 r/min and 37 °C. A 3 mL sample of the solution was obtained at predetermined time intervals for measurement and supplemented with an equal volume of fresh medium. […] All tests were performed in triplicate.
Particle size measurements were performed at different time points using a Malvern Nano ZSP instrument (Malvern, UK). All tests were performed at 25 °C.

The nature of data set [4]: Solubility in organic solvents. It is filed as physicochemical. As to conditions: organic solvent or mixture. Here is the method:
The solubility of NRV in organic solvents, including ethanol, propylene glycol, and ethyl acetate, was tested.

Data set [5] is described as follows: Equilibrium solubility in water and buffers (saturated shake-flask, 37 °C, 24 h). It is filed as physicochemical. Here is the method: The solubility of active pharmaceutical ingredients (API) in water and buffers with various pH values (pH 1.2–pH 7.4) was investigated to guide formulation screening. The equilibrium solubility method was performed based on the saturated shake-flask solubility technique. An excess of each API was added into volumetric flasks containing the medium and placed in a thermostatic shaking chamber (HNY-2102C, Tianjin, China) for 24 h of continuous shaking (150 r/min) at 37 °C. The supernatant was filtered through a 0.45 μm PTFE filter membrane, and then an equal amount of methanol was added to prevent API precipitation. The concentrations were quantified using HPLC. Content analysis was performed using an HPLC system (Thermo Fisher Scientific, Waltham, MA, USA) using methanol:water (88:12, v/v) as the mobile phase. The injection volume of the filtered sample was 10 µL. Separation was performed using an Agilent C18 column (4.60 mm × 250 mm, 5 μm) with a mobile-phase flow rate of 1.0 mL/min. The detection wavelength was set at 203 nm.

Details of data set [6]: method as in PMID 36015346. The conditions noted are these: cited from earlier work.
For the next data set, the system named is SARS-CoV-2 Mpro. Also on record: method as in PMID 20937904. The conditions noted are these: cited from earlier work.

Take `CC(C)(C)[C@H](NC(=O)C(F)(F)F)C(=O)N1C[C@H]2[C@@H]([C@H]1C(=O)N[C@H](C#N)C[C@@H]1CCNC1=O)C2(C)C` [NRV, (1R,2S,5S)-N-((1S)-1-Cyano-2-((3S)-2-oxopyrrolidin-3-yl)ethyl)-3-((2S)-3,3-dimethyl-2-(2,2,2-trifluoroacetamido)butanoyl)-6,6-dimethyl-3-azabicyclo [3.1.0] hexane-2-carboxamide]: in data set [1], the BCS class entry is recorded as “II/IV”. For the same compound, the “Logp (Table S1)” value in data set [1] (predictive, ref 1–3 (supplement)) is reported as 0.845. The “BCS classification (Table S1)” value in data set [1] (ref 1–3 (supplement)) is “BCS II / IV”. For the same compound, in data set [1] (ref 1–3 (supplement)), the “Solubility in words (Table S1)” value was “low solubility in water and buffered aqueous media”. In data set [2], the “Change of solubility in the presence of poloxamer” value is “no significant change”. Besides, in data set [2] (p < 0.05), the “Change of solubility in the presence of HCO and Tween” value is listed as “increased”. Also, in data set [3] (aqueous surfactant solutions, 37 °C), the “Change of concentration of supersaturated solution vs original concentration” value is listed as “no significant alteration”. Also, the solubility in data set [4] (ethanol, read-out: Solubility in ethanol (crude concentration)) was 16500 to 33000 µg/mL (≈ 33000 to 66100 µM); in data set [4] (ethyl acetate, read-out: Solubility in ethyl acetate (crude concentration)), more than 57000 µg/mL; in data set [4] (propylene glycol, read-out: Solubility in propylene glycol (crude concentration)), less than 1600 µg/mL. Moreover, the solubility at 24 h in data set [5] (aqueous buffer, thermodynamic from solid, pH 2.0, 37 °C, read-out: Solubility (concentration, mean ± SD)) was 983.2 ± 5.4 µg/mL (≈ 1970 µM); in data set [5] (aqueous buffer, thermodynamic from solid, pH 3.8, 37 °C, read-out: Solubility (concentration, mean ± SD)), 974.7 ± 4.8 µg/mL (≈ 1950 µM); in data set [5] (aqueous buffer, thermodynamic from solid, pH 4.5, 37 °C, read-out: Solubility (concentration, mean ± SD)), 973.5 ± 5.3 µg/mL (≈ 1950 µM); in data set [5] (aqueous buffer, thermodynamic from solid, pH 6.8, 37 °C, read-out: Solubility (concentration, mean ± SD)), 957.8 ± 7.5 µg/mL (≈ 1920 µM); in data set [5] (aqueous buffer, thermodynamic from solid, pH 7.4, 37 °C, read-out: Solubility (concentration, mean ± SD)), 998.8 ± 6.2 µg/mL (≈ 2000 µM); in data set [5] (buffers pH 1.2–8.0, read-out: Solubility in each buffer), 950 to 1000 µg/mL (≈ 1900 to 2000 µM). Besides, the solubility at 24 h in data set [5] (thermodynamic from solid, pH 1.2, 37 °C, read-out: Solubility (concentration, mean ± SD)) was determined as 997.7 ± 6.5 µg/mL (≈ 2000 µM); in data set [5] (water, 37 °C, read-out: Solubility in water) it was 953.1 ± 7.6 µg/mL (≈ 1910 µM). Moreover, the “Stability under oxidative and photolytic conditions” value in data set [6] is “stable”. The “Stability under strongly acidic and alkaline conditions” value in data set [6] is on record as “hydrolytic”.

For the compound `CC(C)c1nc(CN(C)C(=O)N[C@H](C(=O)N[C@@H](Cc2ccccc2)C[C@H](O)[C@H](Cc2ccccc2)NC(=O)OCc2cncs2)C(C)C)cs1` [RTV, 10-Hydroxy-2-methyl-5-(1-methylethyl)-1-[2-(1methylethyl)-4-thiazolyl]-3,6-dioxo-8,11-bis(phenylmethyl)-2,4,7,12-tetraazatridecan-13-oic acid, 5-thiazolylmethyl ester, [5S-(5R*,8R*,10R*,11R*)]], the “BCS classification (Table S1)” value in data set [1] (ref 1–3 (supplement)) is reported as “BCS II”. In addition, in the data set on SARS-CoV-2 Mpro, the “Activity against SARS-CoV-2 Mpro” value was “inactive”. The “Concentration of supersaturated solution during the experimental period” value in data set [3] (with HCO and Tween, p < 0.001 vs no surfactant) is on record as “effectively sustained”.
